# Assay results published in ChEMBL document CHEMBL1146452, “Saponins from the flower buds of Buddleja officinalis” (J Nat Prod, 2004).
# Test system: HL-60
# Assay: Cytotoxicity against human HL60 cells by MTT assay
# Assay type: functional, cell-based
row,Structure (SMILES),IC50
1,C[C@H]1O[C@@H](O[C@H]2CC[C@@]3(C)[C@@H](CC[C@]4(C)[C@@H]3C=CC3=C5CC(C)(C)CC[C@]5(CO)[C@@H](O)C[C@]34C)[C@]2(C)CO)[C@H](O)[C@@H](O[C@@H]2O[C@H](CO)[C@@H](O[C@@H]3OC[C@@H](O)[C@H](O)[C@H]3O)[C@H](O)[C@H]2O)[C@H]1O [MIMENGOSIDE D],26.7 µM
2,C[C@H]1O[C@@H](O[C@H]2CC[C@]3(C)C4=CC=C5[C@@H]6CC(C)(C)CC[C@]6(CO)[C@@H](O)C[C@@]5(C)[C@]4(C)CC[C@H]3[C@]2(C)CO)[C@H](O)[C@@H](O[C@@H]2O[C@H](CO)[C@@H](O[C@@H]3OC[C@@H](O)[C@H](O)[C@H]3O)[C@H](O)[C@H]2O)[C@H]1O [MIMENGOSIDE F],22.7 µM
3,C[C@@H]1O[C@@H](O[C@H]2[C@H](O)[C@@H](O)[C@H](O[C@H]3[C@@H](O)[C@@H](C)O[C@@H](O[C@H]4CC[C@@]5(C)[C@@H](CC[C@]6(C)[C@@H]5C=CC5=C7CC(C)(C)CC[C@]7(CO)[C@@H](O)C[C@]56C)[C@]4(C)CO)[C@@H]3O[C@@H]3O[C@H](CO)[C@@H](O)[C@H](O)[C@H]3O)O[C@@H]2CO)[C@H](O)[C@H](O)[C@H]1O [MIMENGOSIDE C],23.2 µM
4,C[C@@H]1O[C@@H](O[C@H]2[C@H](O)[C@@H](O)[C@H](O[C@H]3[C@@H](O)[C@@H](C)O[C@@H](O[C@H]4CC[C@]5(C)C6=CC=C7[C@@H]8CC(C)(C)CC[C@]8(CO)[C@@H](O)C[C@@]7(C)[C@]6(C)CC[C@H]5[C@]4(C)CO)[C@@H]3O[C@@H]3O[C@H](CO)[C@@H](O)[C@H](O)[C@H]3O)O[C@@H]2CO)[C@H](O)[C@H](O)[C@H]1O [MIMENGOSIDE E],16.8 µM
